From ChEMBL document CHEMBL4396902, “Development of a Platform To Enable Efficient Permeability Evaluation of Novel Organo-Peptide Macrocycles” (ACS Med Chem Lett, 2019) come the findings set out here.

The data set in a line: Apparent permeability in dog MDCK2 cells incubated for 3 hrs. It is filed as ADME, cell-based, Canis lupus familiaris. The note with it: mdck-ii.
For orientation: Papp means the rate of passage across a membrane or cell layer, normalised by area and donor concentration. For `CC[C@H](C)[C@@H]1NC(=O)CCCNc2cccc(c2)CNC(=O)[C@@H]2CCCN2C(=O)[C@H](Cc2ccc(F)cc2)NC(=O)[C@H](CC2CCCCC2)NC1=O`, the Papp amounted to 2.9 ×10⁻⁶ cm/s. For `CC[C@H](C)[C@@H]1NC(=O)CNc2cccc(c2)CCNC(=O)[C@@H]2CCCN2C(=O)[C@@H](Cc2ccccc2)NC(=O)[C@@H](CC(C)C)NC1=O` the value was 7.6 ×10⁻⁶ cm/s.

`CC[C@H](C)[C@@H]1NC(=O)CNc2cccc(c2)CCNC(=O)[C@@H]2CCCN2C(=O)[C@H](Cc2ccc(F)cc2)NC(=O)[C@@H](CC(C)C)NC1=O`: the Papp came out at 5.7 ×10⁻⁶ cm/s. For `CC[C@H](C)[C@@H]1NC(=O)CNc2cccc(c2)CNC(=O)[C@@H]2CCCN2C(=O)[C@H](Cc2ccc(F)cc2)NC(=O)[C@H](CC2CCCCC2)NC1=O` the value was 3.9 ×10⁻⁶ cm/s; for `CC(C)C[C@H]1NC(=O)[C@@H](C(C)C)NC(=O)CNc2ccccc2CCNC(=O)[C@@H]2CCCN2C(=O)[C@H](Cc2ccc(F)cc2)NC1=O`, 5.5 ×10⁻⁶ cm/s.

`CC(C)C[C@H]1NC(=O)[C@@H](C(C)C)NC(=O)CNc2cccc(c2)CCNC(=O)[C@@H]2CCCN2C(=O)[C@H](Cc2ccc(F)cc2)NC1=O`: the Papp was 4 ×10⁻⁶ cm/s.

On to `CC[C@H](C)[C@@H]1NC(=O)CNc2ccccc2CCNC(=O)[C@@H]2CCCN2C(=O)[C@@H](Cc2ccccc2)NC(=O)[C@@H](CC(C)C)NC1=O`, for which the apparent permeability coefficient (Papp) was found to be 14.5 ×10⁻⁶ cm/s.

For `CC[C@H](C)[C@@H]1NC(=O)CNc2ccccc2CCNC(=O)[C@@H]2CCCN2C(=O)[C@H](Cc2ccc(F)cc2)NC(=O)[C@@H](CC(C)C)NC1=O`, the Papp came out at 12.9 ×10⁻⁶ cm/s.
